The test system of assay [1] is MCF7. Nature of the assay: Growth inhibition of Homo sapiens (human) MCF7 cells at 7.5 ug/ml after 48 hr by MTT assay relative to control. It counts as functional. To be noted: for inhibition of growth at 7.5 µg/mL: MCF7, 48 h, read-out: GI.
Assay [2] concerns MCF7. Nature of the assay: Growth inhibition of Homo sapiens (human) MCF7 cells at 60 ug/ml after 48 hr by MTT assay relative to control. The assay is classed as functional. To be noted: MCF7, 48 h, read-out: GI.
Assay [3] deals with MCF7. Briefly: Growth inhibition of Homo sapiens (human) MCF7 cells at 30 ug/ml after 48 hr by MTT assay relative to control. It counts as functional. To be noted: MCF7, 48 h, read-out: GI.
In assay [4] the test system is MCF7. Nature of the assay: Growth inhibition of Homo sapiens (human) MCF7 cells at 15 ug/ml after 48 hr by MTT assay relative to control. The assay is classed as functional. To be noted: for inhibition of growth at 15 µg/mL: MCF7, 48 h, read-out: GI.
Assay [5] has as its system MCF7. Briefly: Growth inhibition of Homo sapiens (human) MCF7 cells after 48 hr by MTT assay. The assay is classed as functional, cell-based.
[6] abbreviates: Homo sapiens, MCF7, 48 h, read-out: IC50.

SMILES strings stand for the structures. The source made the active and inactive calls. No cut-off for these calls is given here.

For the molecule `Cc1ccc2c(c1)CN(c1ccc3oc(-c4ccccc4)cc(=O)c3c1)CO2`, the inhibition of growth at 7.5 µg/mL with MCF7 [1] was 16.5%. For the same molecule, the inhibition of growth at 60 µg/mL in the assay with MCF7 [2] is 79.5%. Further, the inhibition of growth at 30 µg/mL in the assay with MCF7 [3] turned out to be 56.9%. In addition, the inhibition of growth at 15 µg/mL with MCF7 [4] was determined as 31%. Moreover, the IC50 with MCF7 [5] (setting [6]) turned out to be 29.8 µM.

As for `O=c1cc(-c2ccccc2)oc2cc(N3COc4ccccc4C3)ccc12`, the inhibition of growth at 7.5 µg/mL in the assay with MCF7 [1] was 2.65%. In the assay with MCF7 [2], the inhibition of growth at 60 µg/mL stood at 19.3%. In addition, the inhibition of growth at 30 µg/mL with MCF7 [3] amounted to 12.7%. In addition, the inhibition of growth at 15 µg/mL in the assay on MCF7 [4] worked out at 3.89%. In addition, in the assay on MCF7 [5] (mcf7), the IC50 entry is “Not Active”.

For the molecule `Cc1cccc2c1OCN(c1ccc3c(=O)cc(-c4ccccc4)oc3c1)C2`, the inhibition of growth at 7.5 µg/mL in the assay on MCF7 [1] is 43.9%. Further, the inhibition of growth at 60 µg/mL in the assay on MCF7 [2] is 66.6%. The inhibition of growth at 30 µg/mL in the assay on MCF7 [3] amounted to 57.8%. Further, the inhibition of growth at 15 µg/mL with MCF7 [4] worked out at 54.9%. In the assay on MCF7 [5] (setting [6]), the IC50 was 14.9 µM.

Turning to `COc1cc2c(c(OC)c1)OCN(c1ccc3c(=O)cc(-c4ccccc4)oc3c1)C2`, the inhibition of growth at 7.5 µg/mL with MCF7 [1] was 45.8%. Further, the inhibition of growth at 60 µg/mL in the assay on MCF7 [2] is 88.9%. Besides, the inhibition of growth at 30 µg/mL in the assay on MCF7 [3] came to 75.9%. Further, the inhibition of growth at 15 µg/mL in the assay with MCF7 [4] came to 62.9%. The IC50 in the assay with MCF7 [5] (setting [6]) was 12.1 µM.

On to `O=c1cc(-c2ccccc2)oc2ccc(N3COc4c(Br)cc(Br)cc4C3)cc12`, for which the inhibition of growth at 7.5 µg/mL in the assay on MCF7 [1] came to 6.54%. Moreover, the inhibition of growth at 60 µg/mL in the assay with MCF7 [2] was found to be 34.5%. In addition, in the assay with MCF7 [3], the inhibition of growth at 30 µg/mL was found to be 16.1%. Moreover, in the assay on MCF7 [4], the inhibition of growth at 15 µg/mL stood at 13.6%. The IC50 entry with MCF7 [5] (mcf7) is on record as “Not Active”.

Turning to `O=c1cc(-c2ccccc2)oc2cc(N3COc4c(Cl)cc(Cl)cc4C3)ccc12`, the “growth inhibition (GI)” value with MCF7 [1] was “inactive”. For the same molecule, the inhibition of growth at 60 µg/mL in the assay on MCF7 [2] was 68.8%. In the assay with MCF7 [3], the inhibition of growth at 30 µg/mL was determined as 34.6%. Further, the inhibition of growth at 15 µg/mL in the assay with MCF7 [4] is 11.8%. For the same molecule, in the assay on MCF7 [5] (setting [6]), the IC50 amounted to 44.5 µM.

Turning to `COc1cc2c(c(OC)c1)OCN(c1ccc3oc(-c4ccccc4)cc(=O)c3c1)C2`, the inhibition of growth at 7.5 µg/mL in the assay on MCF7 [1] was 48.9%. For the same molecule, the inhibition of growth at 60 µg/mL in the assay with MCF7 [2] amounted to 99.1%. For the same molecule, the inhibition of growth at 30 µg/mL in the assay with MCF7 [3] is 79%. Also, the inhibition of growth at 15 µg/mL in the assay with MCF7 [4] worked out at 60%. Moreover, the IC50 in the assay on MCF7 [5] (setting [6]) turned out to be 8.01 µM.

For `Cc1cccc2c1OCN(c1ccc3oc(-c4ccccc4)cc(=O)c3c1)C2`, the inhibition of growth at 7.5 µg/mL with MCF7 [1] came out at 30.4%. Besides, the inhibition of growth at 60 µg/mL with MCF7 [2] is 85.1%. Also, the inhibition of growth at 30 µg/mL in the assay on MCF7 [3] came out at 72.4%. The inhibition of growth at 15 µg/mL in the assay with MCF7 [4] amounted to 60.9%. The IC50 in the assay with MCF7 [5] (setting [6]) came out at 14.3 µM.

As to `O=c1cc(-c2ccccc2)oc2ccc(N3COc4c(Cl)cc(Cl)cc4C3)cc12`, in the assay with MCF7 [1], the inhibition of growth at 7.5 µg/mL was 32.8%. Moreover, the inhibition of growth at 60 µg/mL with MCF7 [2] turned out to be 80.3%. In addition, the inhibition of growth at 30 µg/mL in the assay on MCF7 [3] turned out to be 74%. The inhibition of growth at 15 µg/mL in the assay on MCF7 [4] was 61.3%. The 50% inhibitory concentration (IC50) in the assay on MCF7 [5] (setting [6]) was 12 µM.

With `Cc1cc(C)c2c(c1)CN(c1ccc3c(=O)cc(-c4ccccc4)oc3c1)CO2`, the inhibition of growth at 7.5 µg/mL in the assay with MCF7 [1] came out at 11.2%. In the assay on MCF7 [2], the inhibition of growth at 60 µg/mL came to 48.4%. The inhibition of growth at 30 µg/mL in the assay on MCF7 [3] amounted to 26.8%. In addition, the “growth inhibition (GI)” value in the assay with MCF7 [4] was “inactive”. Besides, the IC50 in the assay with MCF7 [5] (setting [6]) came to 61.9 µM.

Consider `O=c1cc(-c2ccccc2)oc2cc(N3COc4c(Br)cc(Br)cc4C3)ccc12`, for which the inhibition of growth at 7.5 µg/mL in the assay with MCF7 [1] was determined as 1.48%. The inhibition of growth at 60 µg/mL with MCF7 [2] was 26.5%. The inhibition of growth at 30 µg/mL in the assay on MCF7 [3] was 11.1%. Also, the inhibition of growth at 15 µg/mL in the assay on MCF7 [4] stood at 1.64%. Besides, the IC50 entry in the assay on MCF7 [5] (mcf7) was “Not Active”.

In the case of `O=c1cc(-c2ccccc2)oc2cc(N3COc4c(cccc4[N+](=O)[O-])C3)ccc12`, the “growth inhibition (GI)” value in the assay on MCF7 [1] is “inactive”. Besides, in the assay on MCF7 [2], the inhibition of growth at 60 µg/mL is 15.7%. In addition, the inhibition of growth at 30 µg/mL in the assay with MCF7 [3] was 5.65%. Also, the inhibition of growth at 15 µg/mL with MCF7 [4] amounted to 1.96%. The 50% inhibitory concentration (IC50) result in the assay with MCF7 [5] (mcf7) is “Not Active”.

Regarding `O=c1cc(-c2ccccc2)oc2ccc(N3COc4c(Br)cccc4C3)cc12`, in the assay with MCF7 [1], the “growth inhibition (GI)” value is “inactive”. Also, the inhibition of growth at 60 µg/mL with MCF7 [2] came to 81.8%. Moreover, the inhibition of growth at 30 µg/mL with MCF7 [3] amounted to 71.6%. Further, the inhibition of growth at 15 µg/mL with MCF7 [4] stood at 37.8%. In addition, the IC50 in the assay on MCF7 [5] (setting [6]) was found to be 19.6 µM.

Regarding `O=c1cc(-c2ccccc2)oc2ccc(N3COc4ccccc4C3)cc12`, in the assay with MCF7 [1], the inhibition of growth at 7.5 µg/mL was 8.7%. For the same molecule, the inhibition of growth at 60 µg/mL with MCF7 [2] was found to be 92.7%. Also, the inhibition of growth at 30 µg/mL in the assay with MCF7 [3] amounted to 68.5%. Besides, the inhibition of growth at 15 µg/mL with MCF7 [4] came out at 34%. Moreover, in the assay on MCF7 [5] (setting [6]), the IC50 amounted to 27.5 µM.

Take `O=c1cc(-c2ccccc2)oc2ccc(N3COc4c(cccc4[N+](=O)[O-])C3)cc12`: the inhibition of growth at 7.5 µg/mL with MCF7 [1] is 8.2%. Besides, the inhibition of growth at 60 µg/mL in the assay on MCF7 [2] worked out at 72.9%. Besides, in the assay on MCF7 [3], the inhibition of growth at 30 µg/mL was found to be 61.9%. In addition, the inhibition of growth at 15 µg/mL with MCF7 [4] was 55.9%. Moreover, the IC50 with MCF7 [5] (setting [6]) turned out to be 28.4 µM.

For the molecule `O=c1cc(-c2ccccc2)oc2cc(N3COc4c(Br)cccc4C3)ccc12`, in the assay on MCF7 [1], the inhibition of growth at 7.5 µg/mL stood at 2.21%. Moreover, the inhibition of growth at 60 µg/mL with MCF7 [2] is 19.5%. In addition, the inhibition of growth at 30 µg/mL with MCF7 [3] stood at 7.89%. Moreover, the inhibition of growth at 15 µg/mL in the assay on MCF7 [4] came to 5.64%. Also, in the assay on MCF7 [5] (mcf7), the half-maximal inhibitory concentration (IC50) entry is reported as “Not Active”.

Take `COc1cccc2c1OCN(c1ccc3oc(-c4ccccc4)cc(=O)c3c1)C2`: the inhibition of growth at 7.5 µg/mL in the assay with MCF7 [1] worked out at 32.5%. For the same molecule, the inhibition of growth at 60 µg/mL in the assay on MCF7 [2] stood at 91.9%. In addition, the inhibition of growth at 30 µg/mL in the assay with MCF7 [3] turned out to be 67.8%. For the same molecule, the inhibition of growth at 15 µg/mL with MCF7 [4] came out at 54%. The IC50 in the assay on MCF7 [5] (setting [6]) turned out to be 17 µM.

In the case of `COc1cccc2c1C(=O)c1c(O)c3c(c(O)c1C2=O)C[C@@](O)(C(=O)CO)C[C@@H]3O[C@H]1C[C@H](N)[C@H](O)[C@H](C)O1` [DOXORUBICIN], the inhibition of growth at 7.5 µg/mL in the assay with MCF7 [1] amounted to 50.8%. In addition, in the assay on MCF7 [2], the inhibition of growth at 60 µg/mL is 99.5%. Also, the inhibition of growth at 30 µg/mL with MCF7 [3] is 88.9%. Moreover, in the assay on MCF7 [4], the inhibition of growth at 15 µg/mL worked out at 70.3%. For the same molecule, in the assay with MCF7 [5] (setting [6]), the IC50 came out at 7.2 µM.

(Values after ChEMBL document CHEMBL3046905, “Synthesis, biological evaluation and molecular docking studies of 1,3-benzoxazine derivatives as potential anticancer agents” (Med Chem Res, 2013).)
